Laboratory results as given in patent US20020115640A1, “Farnesyltransferase inhibitors” (priority 2000, published 2002).

Biological target: T1, farnesyltransferase (Rattus norvegicus, UniProt Q02293+Q04631)
T1 construct: The enzyme can be purified according to Cell, 62: 81-88 (1990), utilizing steps one, two, and three; from tissue; host or cells: rat brain
Experiment: Inhibition of farnesyltransferase (3H-farnesyldiphosphate / H-Ras filter assay)
Assay type: biochemical
Settings: test compound at 10^−7 M; 3H-farnesyldiphosphate 0.6 μM, H-Ras 5.0 μM, 37° C., 30 minutes
From the text: The ability of the compounds of the present invention to inhibit farnesyltransferase can be measured according to the method described in J. Biol. Chem., 266: 14603 (1991) or J. Biol. Chem., 270:660-664 (1995). Procedures for determination of the inhibition of farnesylation of the oncogene protein Ras are described in J. Biol. Chem., 266:15575-15578 (1991) and U.S. Pat. No. 5,245,061. Inhibition of rat brain farnesyltransferase can also be measured in vitro using an Amersham Life Science commercial scintillation proximity assay kit and substituting a biotin-K Ras B fragment (0.1 μM final concentration) for the biotin-lamin substrate provided by Amersham. The enzyme can be purified according to Cell, 62: 81-88 (1990), utilizing steps one, two, and three. […] The percent inhibition of the farnesylation caused by the compounds of the present invention (at 10^−6 M) compared to an uninhibited control sample can be evaluated in the same Amersham test system.
The mixture was brought to 37° C., treated with enzyme, incubated for 30 minutes, treated with 1 M HCl/ethanol (1 mL) to stop the reaction, stirred for 15 minutes at room temperature, diluted with ethanol (2 mL), filtered through a 2.5 cm glass microfiber filter (Whatman) with ethanol rinses (4×2 mL). The glass transferred to a scintillation vial and treated with scintillation fluid (5 mL). The radioisotope retained on the glass fiber filter was counted and reflected the activity of the enzyme.

T1 sequence (Q02293 whole entry, one chain of several): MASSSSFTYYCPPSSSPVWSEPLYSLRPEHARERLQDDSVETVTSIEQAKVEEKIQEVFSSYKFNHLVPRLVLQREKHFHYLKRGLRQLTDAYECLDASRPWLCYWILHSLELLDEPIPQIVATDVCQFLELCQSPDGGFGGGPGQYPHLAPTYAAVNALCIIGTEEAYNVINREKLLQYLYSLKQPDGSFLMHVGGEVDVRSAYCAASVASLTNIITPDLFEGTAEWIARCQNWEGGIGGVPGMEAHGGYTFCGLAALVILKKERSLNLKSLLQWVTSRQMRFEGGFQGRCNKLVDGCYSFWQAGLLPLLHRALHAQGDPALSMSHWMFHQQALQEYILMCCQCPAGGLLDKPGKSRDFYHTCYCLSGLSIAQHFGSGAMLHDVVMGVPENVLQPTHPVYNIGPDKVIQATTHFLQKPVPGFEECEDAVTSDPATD

`Cn1cncc1C(OCc1ccc(C#N)cc1-c1cccc(Cl)c1)c1ccc(C#N)cc1` (centres unmarked) [Example 34, 3′-chloro-6-(((4-cyanophenyl)(1-methyl-1H-imidazol-5-yl)methoxy)methyl)(1,1′-biphenyl)-3-carbonitrile] and `Cn1cncc1C(OCc1cnc(C#N)cc1-c1cccc(Cl)c1)c1ccc(C#N)cc1` (centres unmarked) [Example 40, 4-(3-chlorophenyl)-5-(((4-cyanophenyl)(1-methyl-1H-imidazol-5-yl)methoxy)methyl)-2-pyridinecarbonitrile] cannot be ordered by inhibition at 0.1 µM: > 97% for the first, > 83% for the second.

Going from `Cn1cncc1C(OCc1ccc(Cl)nc1-c1cccc(Cl)c1)c1ccc(C#N)cc1` (centres unmarked) [Example 35, 4-(((6-chloro-2-(3-chlorophenyl)-3-pyridinyl)methoxy)(1-methyl-1H-imidazol-5-yl)methyl)benzonitrile] to `Cc1ccc(COC(c2ccc(C#N)cc2)c2cncn2C)c(-c2cccc(Cl)c2)n1` (centres unmarked) [Example 36, 4-(((2-(3-chlorophenyl)-6-methyl-3-pyridinyl)methoxy)(1-methyl-1H-imidazol-5-yl)methyl)benzonitrile], the inhibition at 0.1 µM falls from 96% to 70%.

Going from `Cn1cncc1C(O)(C#Cc1ccc(Cl)cc1-c1cccc(Cl)c1)c1ccc(C#N)cc1` (centres unmarked) [Example 37, 4-(3-(3′,5-dichloro(1,1′-biphenyl)-2-yl)-1-hydroxy-1-(1-methyl-1H-imidazol-5-yl)-2-propynyl)benzonitrile] to `Cn1cncc1C(OCc1cnc(F)cc1-c1cccc(Cl)c1)c1ccc(C#N)cc1` (centres unmarked) [Example 38, 4-(((4-(3-chlorophenyl)-6-fluoro-3-pyridinyl)methoxy)(1-methyl-1H-imidazol-5-yl)methyl)benzonitrile], the inhibition at 0.1 µM falls from > 96% to 80%.

Going from `COc1cc(-c2cccc(Cl)c2)c(COC(c2ccc(C#N)cc2)c2cncn2C)cn1` (centres unmarked) [Example 39, 4-(((4-(3-chlorophenyl)-6-methoxy-3-pyridinyl)methoxy)(1-methyl-1H-imidazol-5-yl)methyl)benzonitrile] to `Cn1cncc1C(OCc1cn(C)c(=O)cc1-c1cccc(Cl)c1)c1ccc(C#N)cc1` (centres unmarked) [Example 45, 4-(((4-(3-chlorophenyl)-1-methyl-6-oxo-1,6-dihydro-3-pyridinyl)methoxy)(1-methyl-1H-imidazol-5-yl)methyl)benzonitrile], the inhibition at 0.1 µM rises from 74% to 87%.

Compared with `Cn1cncc1C(NC(=O)c1cn(C)c(=O)cc1-c1cccc(Cl)c1)c1ccc(C#N)cc1` (centres unmarked) [Example 41, 4-(3-chlorophenyl)-N-((4-cyanophenyl)(1-methyl-1H-imidazol-5-yl)methyl)-1-methyl-6-oxo-1,6-dihydro-3-pyridinecarboxamide], `Cn1cncc1C(OCc1c[nH]c(=O)cc1-c1cccc(Cl)c1)c1ccc(C#N)cc1` (centres unmarked) [Example 44, 4-(((4-(3-chlorophenyl)-6-oxo-1,6-dihydro-3-pyridinyl)methoxy)(1-methyl-1H-imidazol-5-yl)methyl)benzonitrile] is higher in inhibition at 0.1 µM: 10% for the first, 89% for the second.

Going from `Cn1cncc1C(OCc1cc(=O)c(C#N)cn1-c1cccc(Cl)c1)c1ccc(C#N)cc1` (centres unmarked) [Example 42, 1-(3-chlorophenyl)-6-(((4-cyanophenyl)(1-methyl-1H-imidazol-5-yl)methoxy)methyl)-4-oxo-1,4-dihydro-3-pyridinecarbonitrile] to `Cn1cncc1C(OCc1c(-c2cccc(Cl)c2)cc(C#N)c(=O)n1C)c1ccc(C#N)c(F)c1` (centres unmarked) [Example 52, 5-(3-chlorophenyl)-6-(((4-cyano-3-fluorophenyl)(1-methyl-1H-imidazol-5-yl)methoxy)methyl)-1-methyl-2-oxo-1,2-dihydro-3-pyridinecarbonitrile], the inhibition at 0.1 µM rises from 87% to 100%.

`Cn1cncc1C(OCc1ccc(C#N)cc1NS(=O)(=O)c1cccs1)c1ccc(C#N)cc1` (centres unmarked) [Example 46, N-(5-cyano-2-(((4-cyanophenyl)(1-methyl-1H-imidazol-5-yl)methoxy)methyl)phenyl)-2-thiophenesulfonamide] and `Cc1ccc(S(=O)(=O)Nc2cc(C#N)ccc2COC(c2ccc(C#N)cc2)c2cncn2C)cc1` (centres unmarked) [Example 47, N-(5-cyano-2-(((4-cyanophenyl)(1-methyl-1H-imidazol-5-yl)methoxy)methyl)phenyl)-4-methylbenzenesulfonamide] are the same in inhibition at 0.1 µM: 100% for the first, 100% for the second.

`Cn1cncc1C(OCc1c(-c2cccc(Cl)c2)cc(C#N)c(=O)n1C)c1ccc(C#N)cc1F` (centres unmarked) [Example 53, 5-(3-chlorophenyl)-6-(((4-cyano-2-fluorophenyl)(1-methyl-1H-imidazol-5-yl)methoxy)methyl)-1-methyl-2-oxo-1,2-dihydro-3-pyridinecarbonitrile] and `Cn1cncc1C(OCc1c(-c2cccc(Cl)c2)cc(C#N)c(=O)n1C)c1ccc(C#N)c(Cl)c1` (centres unmarked) [Example 54, 6-(((3-chloro-4-cyanophenyl)(1-methyl-1H-imidazol-5-yl)methoxy)methyl)-5-(3-chlorophenyl)-1-methyl-2-oxo-1,2-dihydro-3-pyridinecarbonitrile] are the same in inhibition at 0.1 µM: 100% for the first, 100% for the second.

Same assay, conditions: test compound at 10^−8 M; 3H-farnesyldiphosphate 0.6 μM, H-Ras 5.0 μM, 37° C., 30 minutes

First: Cn1cncc1C(O)(COc1ccc(C#N)cc1-c1ccc2c(c1)OCO2)c1ccc(C#N)cc1 (centres unmarked) [Example 55, 3-(1,3-benzodioxol-5-yl)-4-(2-(4-cyanophenyl)-2-hydroxy-2-(1-methyl-1H-imidazol-5-yl)ethoxy)benzonitrile]
Second: Cn1cncc1C(F)(COc1ccc(C#N)cc1-c1ccc2c(c1)OCO2)c1ccc(C#N)cc1 (centres unmarked) [Example 56, 3-(1,3-benzodioxol-5-yl)-4-(2-(4-cyanophenyl)-2-fluoro-2-(1-methyl-1H-imidazol-5-yl)ethoxy)benzonitrile]
The inhibition at 0.01 µM of the first is higher: 98% for the first, 97% for the second.

Compared with `COc1cccc(-c2cc(C#N)ccc2OCC(O)(c2ccc(C#N)cc2)c2cncn2C)c1` (centres unmarked) [Example 57, 6-(2-(4-cyanophenyl)-2-hydroxy-2-(1-methyl-1H-imidazol-5-yl)ethoxy)-3′-methoxy-1,1′-biphenyl-3-carbonitrile], `Cn1cncc1C(O)(COc1ccc(C#N)cc1-c1ccc(F)c(F)c1)c1ccc(C#N)cc1` (centres unmarked) [Example 61, 6-(2-(4-cyanophenyl)-2-hydroxy-2-(1-methyl-1H-imidazol-5-yl)ethoxy)-3′,4′-difluoro-1,1′-biphenyl-3-carbonitrile] is lower in inhibition at 0.01 µM: 98% for the first, 96% for the second.

Compared with `Cn1cncc1C(O)(COc1ccc(C#N)cc1-c1cccc2cccnc12)c1ccc(C#N)cc1` (centres unmarked) [Example 59, 4-(2-(4-cyanophenyl)-2-hydroxy-2-(1-methyl-1H-imidazol-5-yl)ethoxy)-3-quinolin-8-ylbenzonitrile], `Cn1cncc1C(F)(COc1ccc(C#N)cc1-c1cccc2cccnc12)c1ccc(C#N)cc1` (centres unmarked) [Example 60, 4-(2-(4-cyanophenyl)-2-fluoro-2-(1-methyl-1H-imidazol-5-yl)ethoxy)-3-quinolin-8-ylbenzonitrile] is lower in inhibition at 0.01 µM: 83% for the first, 73% for the second.

`Cn1cncc1C(F)(COc1ccc(C#N)cc1-c1ccc(F)c(F)c1)c1ccc(C#N)cc1` (centres unmarked) [Example 62, 6-(2-(4-cyanophenyl)-2-fluoro-2-(1-methyl-1H-imidazol-5-yl)ethoxy)-3′,4′-difluoro-1,1′-biphenyl-3-carbonitrile] and `Cn1cncc1C(F)(COc1ccc(C#N)cc1-c1ccc(F)c(Cl)c1)c1ccc(C#N)cc1` (centres unmarked) [Example 66, 3′-chloro-6-(2-(4-cyanophenyl)-2-fluoro-2-(1-methyl-1H-imidazol-5-yl)ethoxy)-4′-fluoro-1,1′-biphenyl-3-carbonitrile] are the same in inhibition at 0.01 µM: 93% for the first, 93% for the second.

Compared with `Cn1cncc1C(F)(COc1ccc(C#N)cc1-c1ccc(OC(F)(F)F)cc1)c1ccc(C#N)cc1` (centres unmarked) [Example 64, 6-(2-(4-cyanophenyl)-2-fluoro-2-(1-methyl-1H-imidazol-5-yl)ethoxy)-4′-(trifluoromethoxy)-1,1′-biphenyl-3-carbonitrile], `Cn1cncc1C(F)(COc1ccc(C#N)cc1-c1cc(F)cc(F)c1)c1ccc(C#N)cc1` (centres unmarked) [Example 68, 6-(2-(4-cyanophenyl)-2-fluoro-2-(1-methyl-1H-imidazol-5-yl)ethoxy)-3′,5′-difluoro-1,1′-biphenyl-3-carbonitrile] is higher in inhibition at 0.01 µM: 90% for the first, 91% for the second.

Work on `Cn1cncc1C(O)(COc1ccc(C#N)cc1-c1cc(F)cc(F)c1)c1ccc(C#N)cc1` (centres unmarked) [Example 67, 6-(2-(4-cyanophenyl)-2-hydroxy-2-(1-methyl-1H-imidazol-5-yl)ethoxy)-3′,5′-difluoro-1,1′-biphenyl-3-carbonitrile] yielded an inhibition at 0.01 µM of 94%.

For `Cn1cncc1C(O)(COc1ccc(C#N)cc1-c1ccc(OC(F)(F)F)cc1)c1ccc(C#N)cc1` (centres unmarked) [Example 63, 6-(2-(4-cyanophenyl)-2-hydroxy-2-(1-methyl-1H-imidazol-5-yl)ethoxy)-4′-(trifluoromethoxy)-1,1′-biphenyl-3-carbonitrile], the “% Inhibition at 10^−8 M” value was 97%.

Same assay, conditions: test compound at 10^−9 M (stated in the cell); 3H-farnesyldiphosphate 0.6 μM, H-Ras 5.0 μM, 37° C., 30 minutes

`Cn1cncc1C(O)(COc1ccc(C#N)cc1-c1ccc(F)c(Cl)c1)c1ccc(C#N)cc1` (centres unmarked) [Example 65, 3′-chloro-6-(2-(4-cyanophenyl)-2-hydroxy-2-(1-methyl-1H-imidazol-5-yl)ethoxy)4′-fluoro-1,1′-biphenyl-3-carbonitrile] was tested, and the inhibition at 0.001 µM was 75%.
